Our source for the TGI and GI50 values is PubChem BioAssay (NCI).

Structures are written as SMILES. Where “and” joins values, the source holds several entries; their conditions need not be identical. Equal values may be shown once.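 Tested at 5 concentrations; 48 h exposure; 96-well plates; endpoints linearly interpolated, else capped at highest concentration. Here, GI50 denotes the concentration required for 50% inhibition of growth. The concentration for full growth arrest is given as TGI.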

What all share (experiment): NCI anticancer screen, dose series, 48 h
In assay [1] the test system is CCRF-CEM leukemia.
Assay [2] deals with HOP-62 NSCLC.
Assay [3] relates to OVCAR-4 ovarian.
Assay [4] deals with SK-MEL-28 melanoma.
The subject of assay [5] is MOLT-4 leukemia.
Assay [6] relates to SR leukemia.
In assay [7] the test system is SK-MEL-5 melanoma.
Assay [8] relates to M14 melanoma.
Assay [9] has as its system NCI-H522 lung.
The subject of assay [10] is IGROV1 ovarian.

With `CN1CC(C(=O)NC2(C)OC3(O)C4CCCN4C(=O)C(Cc4ccccc4)N3C2=O)C=C2c3cccc4[nH]cc(c34)CC21` (configuration not stated), the TGI is greater than 100 µM in assay [1]; 63.2 µM in [2]; greater than 100 µM in assay [3]; 35.2 µM in [4]; greater than 100 µM in assay [5]; 60.7 µM in assay [6]. Moreover, the TGI came to 30.6 µM in assay [7], 81.4 µM in assay [8], 33.3 µM in [9] and 50.8 µM in assay [10].

On to `COc1cc(C(=O)N/N=C/c2cccc([N+](=O)[O-])c2)cc(OC)c1OC`, for which the GI50 is 4.52 µM in assay [1]; 18.4 µM in assay [2]; 43.4 µM in assay [3]; 39.3 µM in assay [4]; 3.98 µM in assay [5]; 0.558 µM in assay [6]. For the same compound, the GI50 in assay [7] is 2.76 µM; in [8] it was 4.3 µM; in assay [9], 2.45 µM; in assay [10], 4.63 µM. The TGI in [1], in [2], in assay [3], in assay [4], in assay [5] and in assay [6] was greater than 100 µM each time. Besides, the TGI is greater than 100 µM in [7], 54.3 µM in [8], 5.74 µM in assay [9] and greater than 100 µM in assay [10].

Turning to `CC(C)C[C@H](NC(=O)[C@@H](O)[C@H](N)Cc1ccccc1)C(=O)O`, the TGI in assay [1], in assay [2], in assay [3], in assay [4], in assay [5] and in assay [6] was greater than 100 µM throughout. Besides, the TGI in assay [7], in assay [8], in [9] and in assay [10] was greater than 100 µM each time. The GI50 in [9] was greater than 100 µM.

Consider `CCCCCCCCCCCCCCCC(=O)OCC1OC(n2ccc(N)nc2=O)C(O)C1O` (configuration not stated), for which the TGI is 8.85 µM in assay [1]; greater than 66.6 µM in assay [2]; greater than 100 µM in [3]; greater than 100 µM in assay [4]; 44.8 µM in [5]; 84.5 µM in [6]. Besides, the TGI in assay [7] was greater than 100 µM; in [8] it was 33.7 µM; in assay [9], greater than 100 µM; in assay [10], greater than 100 µM.

As to `CC(C)(C)c1ccc(S(=O)(=O)N[C@H]2CC[C@H]3[C@@H]4CCc5cc(O)ccc5[C@H]4CC[C@]23C)cc1`, the GI50 is 2.63 µM in assay [1]; 2.07 µM in assay [2]; 2.91 µM in assay [3]; 1.71 µM in assay [4]; 2.46 µM in assay [5]; 2.17 µM in assay [6]. The GI50 was 1.65 µM in assay [7], 2.02 µM in assay [8], 2.5 µM in assay [9] and 3.74 µM in assay [10]. Moreover, the TGI in assay [1] was found to be 7.79 µM; in assay [2], 3.98 µM; in assay [3], 10.2 µM; in assay [4], 3.18 µM; in assay [5], 9.53 µM; in assay [6], 6.04 µM. The TGI in [7] came out at 3.05 µM; in assay [8] it was 4.04 µM; in assay [9], 7.13 µM; in assay [10], 10.8 µM.

Consider `CC(C)(C)NCCC(O)c1cc(C(F)(F)F)nc2c(C(F)(F)F)cccc12` (configuration not stated), for which the TGI in assay [1] came to 30.5 µM; in assay [2], 14.5 µM; in assay [3] it was 27.1 µM; in assay [4] it was 30.7 µM; in assay [5], 18.6 µM; in assay [6], 13.5 µM. Moreover, the TGI in [7] is 25.5 µM; in assay [8], 19.4 µM; in assay [9], 25.1 µM; in assay [10], 23.8 µM.

Take `Nc1ccc2c(c1)CN1C(=O)c3ccccc3C1=N2`: the GI50 in [1] was 37.6 µM; in [2] it was 45.7 µM; in assay [5], 19.2 µM; in assay [6] it was 26.4 µM; in assay [9], 12.8 µM; in assay [10], 51 µM. Besides, the TGI in assay [1] is greater than 90 µM; in assay [2] it was 23.8 µM; in assay [3] it was greater than 125 µM; in assay [4] it was greater than 125 µM; in assay [5], 96.5 µM and 58.2 µM; in assay [6] it was greater than 125 µM. Moreover, the TGI was 90.9 µM in assay [7], greater than 125 µM in [8], 112 µM in [9] and 123 µM in assay [10].

For the compound `CC(C)n1nc(C#Cc2cccc(NC(=O)c3cccc(C(F)(F)F)c3)c2)c2c(N)ncnc21`, the GI50 was 2.73 µM in assay [1]; 1.11 µM in assay [2]; 3.54 µM in [3]; 0.368 µM in assay [4]; 1.36 µM in assay [5]; 3.67 µM in assay [6]. In addition, the GI50 in [7] was 2.55 µM; in assay [8], 0.309 µM; in assay [9] it was 1.83 µM; in assay [10], 0.333 µM. Also, the TGI in [1] was greater than 100 µM; in [2], 6.71 µM; in assay [3], 34.4 µM; in assay [4], 6.82 µM; in assay [5], 61.3 µM; in [6] it was greater than 100 µM. The TGI in assay [7] came to 30.8 µM; in [8], 2.03 µM; in [9] it was 9.11 µM; in assay [10] it was 1.59 µM.

As for `CCc1nc(N)nc(N)c1-c1ccc([N+](=O)[O-])c(Cl)c1`, the TGI in assay [1], in assay [2], in assay [3], in assay [4], in assay [5] and in assay [6] was greater than 100 µM in each case. Further, the TGI in assay [7] was greater than 82.5 µM; in assay [8], greater than 100 µM; in [9], greater than 52.9 µM; in assay [10] it was greater than 100 µM.

On to `C[C@H](NC(=O)CCC(F)(F)F)C(=O)N[C@@H]1C(=O)N(CCO)c2ncccc2-c2ccccc21`, for which the GI50 in [1], in assay [2], in assay [3], in [4], in [5] and in assay [6] was greater than 100 µM throughout. In addition, the GI50 in assay [7], in assay [8], in assay [9] and in assay [10] was greater than 100 µM each time. Further, the TGI in assay [1], in assay [2], in [3], in assay [4], in assay [5] and in assay [6] was greater than 100 µM in each case. For the same compound, the TGI in [7], in assay [8], in assay [9] and in [10] was greater than 100 µM in each case.

Regarding `CCNC(=O)Oc1ccc(/C(=C(\C)c2ccc(Cl)cc2)c2ccc(OCCN3CCCCC3)cc2)cc1`, the GI50 is 3.26 µM in assay [1]; 4.12 µM in [2]; 2.99 µM in assay [3]; 1.83 µM in assay [4]; 3.27 µM in [5]; 2.98 µM in [6]. Further, the GI50 in [7] was 1.79 µM; in assay [8], 1.87 µM; in [9], 14.1 µM; in assay [10] it was 4.13 µM. Further, the TGI in assay [1] turned out to be 11.8 µM; in assay [2] it was 15.4 µM; in assay [3] it was 12.9 µM; in assay [4], 3.73 µM; in [5], 10.6 µM; in assay [6], 9.23 µM. Further, the TGI in [7] stood at 3.17 µM; in assay [8] it was 3.8 µM; in assay [9] it was 29.9 µM; in assay [10], 15.8 µM.

Turning to `CN(C)c1ccc(Sc2ccc3nc(N)nc(N)c3c2)cc1`, the GI50 in assay [1] is 0.906 µM; in [2] it was 0.884 µM; in [3] it was 1.76 µM; in assay [4] it was 2.76 µM; in [5], 0.635 µM; in assay [6], 0.629 µM. The GI50 in [7] is 0.503 µM; in assay [8], 0.363 µM; in [9] it was 0.934 µM; in assay [10], 0.67 µM. The TGI came out at 30.1 µM in assay [1]; 15.6 µM in assay [2]; 17.1 µM in assay [3]; 15.5 µM in assay [4]; 16 µM in assay [5]; 6.71 µM in [6]. Further, the TGI in [7] stood at 4.78 µM; in assay [8] it was 2.13 µM; in assay [9] it was 11.7 µM; in assay [10], 14.2 µM.

For `N#Cc1ccc(N2Cc3cc(Cl)ccc3OC3=C2C(=O)N(Cc2ccccc2)C3=O)cc1`, the GI50 in [1] is 0.226 µM; in [2], 2.35 µM; in assay [3], 1.41 µM; in assay [4], 1.62 µM; in [5], 0.25 µM; in assay [6], 0.242 µM. Also, the GI50 is 1.84 µM in assay [7], 1.49 µM in [8], 0.25 µM in [9] and 2.19 µM in [10]. In addition, the TGI in [1] is 0.827 µM; in [2] it was 6.12 µM; in [3], 3.26 µM; in assay [4], 3.41 µM; in assay [5], 0.818 µM; in [6], 0.828 µM. The TGI in assay [7] stood at 3.51 µM; in assay [8], 3.68 µM; in assay [9] it was 0.62 µM; in [10] it was 4.88 µM.
